This is an account of results in patent publication US6680335B2, “Methods of modulating protein tyrosine kinase function with substituted indolinone compounds” (Sugen, Inc., priority 1998, dated 2004).

One may read the inhibition as the percentage by which the read-out fell short of the control. A high value points to a response far below the control. Broadly, the pIC50 is the negative decadic logarithm of the IC50, by convention in mol/L.

Assay [1] has as its target T1, FLK-1 receptor (Mus musculus, UniProt P35918).
T1 construct: expressed in transfected cells; host or cells: NIH3T3 C7#3 cells
In words: ELISA assay measuring the kinase activity of the FLK-1 receptor in cells engineered to express FLK-1. The following applies: FLK-1 expressing NIH3T3 C7#3 cells, VEGF stimulated; for inhibition at 100 µM: compound at 100 μM; for pIC50: cells without % or + sign. Format: cell-based. The method, then:
An ELISA assay was conducted to measure the kinase activity of the FLK-1 receptor and more specifically, the inhibition or activation of TK activity on the FLK-1 receptor. Specifically, the following assay was conducted to measure kinase activity of the FLK-1 receptor in cells genetically engineered to express FLK-1.
(11) NIH3T3 C7#3 Cells (FLK-1 expressing cells);
The following protocol was used for conducting the assay:
1. Coat Corning 96-well elisa plates with 1.0 μg per well Cappel Anti-rabbit IgG antibody in 0.1 M Na2CO3 pH 9.6. Bring final volume to 150 μL per well. Coat plates overnight at 4° C. Plates can be kept up to two weeks when stored at 4° C.
2. Grow cells in Growth media (DMEM, supplemental with 2.0 mM L-Glutamine, 10% FBS) in suitable culture dishes until confluent at 37° C., 5% CO2.
3. Harvest cells by trypsinization and seed in Corning 25850 polystyrene 96-well roundbottom cell plates, 25.000 cells/well in 200 μL of growth media.
4. Grow cells at least one day at 37° C., 5% CO2.
5. Wash cells with D-PBS 1×.
6. Add 200 μL/well of starvation media (DMEM, 2.0 mM 1-Glutamine, 0.1% FBS). Incubate overnight at 37° C., 5% CO2.
7. Dilute Compounds 1:20 in polypropylene 96 well plates using starvation media. Dilute dimethylsulfoxide 1:20 for use in control wells.
8. Remove starvation media from 96 well cell culture plates and add 162 μL of fresh starvation media to each well.
9. Add 18 μL of 1:20 diluted Compound dilution (from step 7) to each well plus the 1:20 dimethylsulfoxide dilution to the control wells (+/−VEGF), for a final dilution of 1:200 after cell stimulation. Final dimethylsulfoxide is 0.5%. Incubate the plate at 37° C., 5% CO2 for two hours.
10. Remove unbound antibody from ELISA plates by inverting plate to remove liquid. Wash 3 times with TBSW+0.5% ethanolamine, pH 7.0. Pat the plate on a paper towel to remove excess liquid and bubbles.
11. Block plates with TBSW+0.5% Ethanolamine, pH 7.0, 150 μL per well. Incubate plate thirty minutes while shaking on a microliter plate shaker.
12. Wash plate 3 times as described in step 10.
13. […] Bring final volume to 150 μL/well with TBSW+0.5% ethanolamine pH 7.0. Incubate plate for thirty minutes while shaking.
14. Add 180 μL starvation medium to the cells and stimulate cells with 20 μL/well 10.0 mM sodium ortho vanadate and 500 ng/mL VEGF (resulting in a final concentration of 1.0 mM sodium ortho vanadate and 50 ng/mL VEGF per well) for eight minutes at 37° C., 5% CO2. Negative control wells receive only starvation medium.
15. After eight minutes, media should be removed from the cells and washed one time with 200 μL/well PBS.
16. Lyse cells in 150 μL/well HNTG while shaking at room temperature for five minutes. HNTG formulation includes sodium ortho vanadate, sodium pyro phosphate and EDTA.
17. Wash ELISA plate three times as described in step 10.
18. Transfer cell lysates from the cell plate to ELISA plate and incubate while shaking for two hours. To transfer cell lysate pipette up and down while scrapping the wells.
19. Wash plate three times as described in step 10.
20. Incubate ELISA plate with 0.02 μg/well UB40 in TBSW+05% ethanolamine. Bring final volume to 150 μL/well. Incubate while shaking for 30 minutes.
21. Wash plate three times as described in step 10.
22. Incubate ELISA plate with 1:10,000 diluted EIA grade goat anti-mouse IgG conjugated horseradish peroxidase in TBSW+0.5% ethanolamine, pH 7.0. Bring final volume to 150 μL/well. Incubate while shaking for thirty minutes.
23. Wash plate as described in step 10.
24. Add 100 μL of ABTS/H2O2 solution to well. Incubate ten minutes while shaking.
25. Add 100 μL of 0.2 M HCl for 0.1 M HCl final to stop the color development reaction. Shake 1 minute at room temperature. Remove bubbles with slow stream of air and read the ELISA plate in an ELISA plate reader at 410 nm.
(§1) The IC50 values were measured for several of the compounds of the invention.
In general terms: In an ELISA, binding on a coated surface is turned into a signal by an enzyme label.

The target of assay [2] is T2, EGFR protein (Homo sapiens, UniProt P00533).
T2 construct: Add 120 μL TBS to ELISA plate containing captured EGFR; endogenous in cells; host or cells: A431 cells (lysate, captured with SUMO1 anti-EGFR antibody)
The assay can be described thus: ELISA assay measuring the kinase activity of the EGF receptor (captured from A431 cell lysate). In kind it is biochemical. The procedure: The following protocol describes the reagents and procedures used to analyze protein tyrosine kinase activity on the EGFR protein.
2. SUMO1 monoclonal anti-EGFR antibody
All of the following steps are conducted at room temperature unless it is specifically indicated. All ELISA plate washing is by rinsing 4× with TBST.
1. Coat Corning 96 well ELISA plates with 0.5 μ/well of SUMO1 in a volume of 100 μL PBS. Store overnight at 4° C.
2. Remove unbound SUMO1 by inverting plate to remove liquid. Wash plates with distilled water. Pat plate on a paper towel to remove excess liquid and bubbles
3. Add 150 μL of Blocking Buffer to each well. Incubate while shaking on a microliter plate shaker at room temperature for 30 min.
4. Wash 3× with deionized water, then once with TBST. Pat plate on a paper towel to remove excess liquid and bubbles.
5. Dilute lysate in PBS (7 μg of lysate/100 μL of PBS).
6. Add 100 μL of diluted lysate to each well. Shake at room temperature for 60 min.
7. Wash as described in step 4.
8. Add 120 μL TBS to ELISA plate containing captured EGFR.
9. Dilute drugs/extracts 1:10 (unless specified otherwise) in TBS in 96-well polypropylene plates.
10. Add 13.5 μL diluted drugs/extracts to ELISA plate.
11. Incubate for 30 minutes while shaking at room temperature.
12. […] Incubate while shaking on a micro-liter plate shaker at room temperature for 5 min.
13. Stop Kinase reaction with the addition of 16.5 μL of 200 mM EDTA pH 8.0 to all wells.
14. Wash 4× with deionized water and twice with TBST.
15. Add 100 μL per well of anti-phosphotyrosine (1:3000 dilution in TBST). Incubate while shaking on a micro-liter plate shaker 30-45 minutes at room temperature while shaking.
16. Wash as described in step 4.
17. Add 100 μL per well of biosource Goat anti-rabbit IgG peroxidase conjugate (1:2000 dilution in TBST). Incubate 30 min. at room temperature while shaking.
18. Wash as described in step 4.
19. Add 100 μL of ABTS/H2O2 solution to each well.
20. Incubate 5 to 15 minutes while shaking. Remove any bubbles.
21. If necessary stop reaction with the addition of 10 μL of 0.2 M HCl/well.
22. Read assay on Dynatech MR7000 ELISA Plate Reader.
as §1

pIC50: −log10 of the molar value. Values joined by “and” are separate entries in the source; they are usually repeats but may differ in a detail not shown here. Identical values can stand only once.

T1 sequence (P35918 20-1345): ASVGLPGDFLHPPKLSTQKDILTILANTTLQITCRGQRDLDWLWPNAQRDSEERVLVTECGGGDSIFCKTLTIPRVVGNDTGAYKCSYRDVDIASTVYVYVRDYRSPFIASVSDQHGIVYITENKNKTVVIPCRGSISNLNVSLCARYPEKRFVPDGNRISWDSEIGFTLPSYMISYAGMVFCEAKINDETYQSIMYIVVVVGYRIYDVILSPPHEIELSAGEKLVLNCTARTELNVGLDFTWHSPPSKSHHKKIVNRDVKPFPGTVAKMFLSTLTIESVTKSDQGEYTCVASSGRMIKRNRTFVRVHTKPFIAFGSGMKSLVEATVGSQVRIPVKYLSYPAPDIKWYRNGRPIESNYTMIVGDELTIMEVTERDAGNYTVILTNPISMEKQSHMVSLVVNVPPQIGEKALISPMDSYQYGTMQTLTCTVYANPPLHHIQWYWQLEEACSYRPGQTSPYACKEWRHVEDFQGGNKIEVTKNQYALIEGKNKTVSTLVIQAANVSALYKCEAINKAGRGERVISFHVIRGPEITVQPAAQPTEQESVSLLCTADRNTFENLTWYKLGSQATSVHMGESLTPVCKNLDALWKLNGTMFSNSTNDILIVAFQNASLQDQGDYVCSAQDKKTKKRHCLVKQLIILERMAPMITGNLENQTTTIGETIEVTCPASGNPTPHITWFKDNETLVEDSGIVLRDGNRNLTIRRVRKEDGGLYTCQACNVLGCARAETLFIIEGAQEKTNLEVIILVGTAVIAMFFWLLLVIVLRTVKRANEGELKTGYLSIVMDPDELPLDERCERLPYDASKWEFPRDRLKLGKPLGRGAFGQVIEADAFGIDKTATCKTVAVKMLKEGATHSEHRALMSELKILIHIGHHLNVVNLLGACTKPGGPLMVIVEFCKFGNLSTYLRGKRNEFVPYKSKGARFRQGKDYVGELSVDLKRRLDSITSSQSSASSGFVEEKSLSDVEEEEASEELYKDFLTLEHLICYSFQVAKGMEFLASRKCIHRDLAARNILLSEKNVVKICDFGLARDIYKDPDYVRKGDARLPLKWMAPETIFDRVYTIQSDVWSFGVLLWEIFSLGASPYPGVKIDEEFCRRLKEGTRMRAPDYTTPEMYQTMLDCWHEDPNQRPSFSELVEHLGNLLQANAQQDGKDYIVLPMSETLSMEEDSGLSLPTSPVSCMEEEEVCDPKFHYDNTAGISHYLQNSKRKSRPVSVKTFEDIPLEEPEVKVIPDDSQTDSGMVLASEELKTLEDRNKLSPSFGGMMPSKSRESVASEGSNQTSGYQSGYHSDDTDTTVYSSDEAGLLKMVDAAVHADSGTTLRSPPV
T2 sequence (P00533 25-1210): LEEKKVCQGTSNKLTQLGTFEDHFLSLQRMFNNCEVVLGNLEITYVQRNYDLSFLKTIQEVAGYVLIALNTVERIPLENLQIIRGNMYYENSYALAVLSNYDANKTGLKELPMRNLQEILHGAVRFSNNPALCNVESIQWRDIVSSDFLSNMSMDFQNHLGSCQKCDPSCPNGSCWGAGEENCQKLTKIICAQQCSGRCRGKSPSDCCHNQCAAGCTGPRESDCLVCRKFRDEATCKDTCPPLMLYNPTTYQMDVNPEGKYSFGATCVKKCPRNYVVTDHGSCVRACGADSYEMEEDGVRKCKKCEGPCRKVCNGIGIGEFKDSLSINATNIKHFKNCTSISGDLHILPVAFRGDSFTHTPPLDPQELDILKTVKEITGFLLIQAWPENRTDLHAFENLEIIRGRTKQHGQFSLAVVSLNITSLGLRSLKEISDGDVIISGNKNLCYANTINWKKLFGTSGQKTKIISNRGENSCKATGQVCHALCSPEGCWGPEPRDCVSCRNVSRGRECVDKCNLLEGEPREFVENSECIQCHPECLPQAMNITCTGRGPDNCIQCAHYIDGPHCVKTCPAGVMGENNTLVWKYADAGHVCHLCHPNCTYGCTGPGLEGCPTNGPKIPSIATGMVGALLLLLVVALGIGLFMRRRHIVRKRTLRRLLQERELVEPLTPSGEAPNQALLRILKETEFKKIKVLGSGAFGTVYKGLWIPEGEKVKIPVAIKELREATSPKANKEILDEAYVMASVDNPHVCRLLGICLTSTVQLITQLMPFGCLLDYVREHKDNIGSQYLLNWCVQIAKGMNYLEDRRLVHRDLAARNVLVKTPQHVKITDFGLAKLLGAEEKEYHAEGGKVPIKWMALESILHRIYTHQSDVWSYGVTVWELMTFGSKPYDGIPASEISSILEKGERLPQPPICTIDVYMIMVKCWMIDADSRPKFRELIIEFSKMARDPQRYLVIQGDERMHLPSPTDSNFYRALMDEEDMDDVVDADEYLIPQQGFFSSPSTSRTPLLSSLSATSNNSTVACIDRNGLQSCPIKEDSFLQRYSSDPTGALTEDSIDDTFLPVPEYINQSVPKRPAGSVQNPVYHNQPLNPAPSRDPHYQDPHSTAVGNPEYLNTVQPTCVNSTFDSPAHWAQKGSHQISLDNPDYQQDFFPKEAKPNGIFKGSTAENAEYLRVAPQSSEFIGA

For the compound `O=C1Nc2ccccc2/C1=C/c1cc2ccccc2[nH]1` [IN-012, 3-(1H-Indol-2-ylmethylene)-1,3-dihydro-indol-2-one], the inhibition at 100 µM in assay [1] stood at 17.6%. The compound further gave a pIC50 in assay [2] below 4.00.

`NS(=O)(=O)c1ccc2c(c1)/C(=C/c1cc3ccccc3[nH]1)C(=O)N2` [IN-008, 3-(1H-Indol-2-ylmethylene)-2-oxo-2,3-dihydro-1H-indole-5-sulfonic acid amide] had an inhibition at 100 µM in assay [1] of 23%. The compound further showed a pIC50 in assay [2] below 4.00.

In assay [1], `Cc1c(/C=C2\C(=O)Nc3ccc(Cl)cc32)[nH]c2ccccc12` [IN-017, 5-Chloro-3-(3-methyl-1H-indol-2-ylmethylene)-1,3-dihydro-indol-2-one] yielded an inhibition at 100 µM of 20.4%. In addition, the pIC50 in assay [2] was below 4.00.

For the compound `Cc1cccc2c1/C(=C/c1[nH]c3ccccc3c1C)C(=O)N2` [IN-019, 4-Methyl-3-(3-methyl-1H-indol-2-ylmethylene)-1,3-dihydro-indol-2-one], the inhibition at 100 µM in assay [1] was found to be 10.7%. This compound gave a negative-log IC50 (pIC50) in assay [2] below 4.00.

`CC(=O)c1ccc2c(c1)C(=Cc1cc3ccccc3[nH]1)C(=O)N2` [IN-007, 5-Acetyl-3-(1H-indol-2-ylmethylene)-1,3-dihydro-indol-2-one]: the inhibition at 100 µM in assay [1] was found to be 30%. Besides, in assay [2], the negative-log IC50 (pIC50) was below 4.00.

Compound `Cc1c(/C=C2\C(=O)Nc3ccc(Br)cc32)[nH]c2ccccc12` [IN-018, 5-Bromo-3-(3-methyl-1H-indol-2-ylmethylene)-1,3-dihydro-indol-2-one] displayed an inhibition at 100 µM in assay [1] of 15.8%. Moreover, in assay [2], the pIC50 was 4.75 and < 4.00.

Take `Cc1c(/C=C2\C(=O)Nc3ccc(C(=O)O)cc32)[nH]c2ccccc12` [IN-005, 3-(3-Methyl-1H-indol-2-ylmethylene)-2-oxo-2,3-dihydro-1H-indole-5-carboxylic acid]: the negative-log IC50 (pIC50) in assay [1] was 5.38; in assay [2] it was 5.09.

In assay [1], `Cc1c(/C=C2\C(=O)Nc3ccc(S(N)(=O)=O)cc32)[nH]c2ccccc12` [IN-002, 3-(3-Methyl-1H-indol-2-ylmethylene)-2-oxo-2,3-dihydro-1H-indole-5-sulfonic acid amide] had an inhibition at 100 µM of 8.7%. In assay [2], the negative-log IC50 (pIC50) is below 4.00.

The compound `Cc1c(/C=C2\C(=O)Nc3ccccc32)[nH]c2ccccc12` [IN-016, 3-(3-Methyl-1H-indol-2-ylmethylene)-1,3-dihydro-indol-2-one] registered an inhibition at 100 µM in assay [1] of 26%. In assay [2], this compound showed a negative logarithm of the IC50 (pIC50) below 4.00.

Take `Nc1ccc2c(c1)/C(=C/c1cc3ccccc3[nH]1)C(=O)N2` [IN-009, 5-Amino-3-(1H-indol-2-ylmethylene)-1,3-dihydro-indol-2-one]: the negative logarithm of the IC50 (pIC50) is 5.82 in assay [1] and below 4.00 in assay [2].

In the case of `CC(=O)c1ccc2c(c1)C(=Cc1[nH]c3ccccc3c1C)C(=O)N2` [IN-006, 5-Acetyl-3-(3-methyl-1H-indol-2-ylmethylene)-1,3-dihydro-indol-2-one], in assay [1], testing at 100 µM gave an inhibition of 10.4%. Also, in assay [2], the negative logarithm of the IC50 (pIC50) is < 4.00 and 4.51.

In turn, `Cc1ccc2c(c1)/C(=C/c1[nH]c3ccccc3c1C)C(=O)N2` [IN-001, 5-Methyl-3-(3-methyl-1H-indol-2-ylmethylene)-1,3-dihydro-indol-2-one] came in with an inhibition at 100 µM in assay [1] of 10.7%. The same compound had a pIC50 in assay [2] below 4.00.

Consider `O=C1Nc2cc(Cl)ccc2/C1=C/c1cc2ccccc2[nH]1` [IN-011, 6-Chloro-3-(1H-indol-2-ylmethylene)-1,3-dihydro-indol-2-one], for which the inhibition at 100 µM in assay [1] was found to be 6.1%. The compound further showed a pIC50 in assay [2] below 4.00.

In the case of `O=C1Nc2ccc(Cl)cc2/C1=C/c1cc2ccccc2[nH]1` [IN-013, 5-chloro-3-(1H-indol-2-ylmethylene)-1,3-dihydro-indol-2-one], testing at 100 µM in assay [1] gave an inhibition of 17%. The pIC50 in assay [2] is below 4.00.

Consider `O=C1Nc2ccc(C(=O)O)cc2/C1=C/c1cc2ccccc2[nH]1` [IN-010, 3-(1H-Indol-2-ylmethylene)-2-oxo-2,3-dihydro-1H-indole-5-carboxylic acid], for which the values for the pIC50 in assay [1] and in assay [2] were 5.68 and below 4.00, respectively.
